In paper PMC5739799 (Oncotarget, 2017):
Several values for one entry are separate records, joined by “and”; a condition that tells them apart may be missing. Equal entries are not always repeated.

Key:
HCC-PDX model 19 = test: Patient-derived HCC xenograft model 19, tumor growth; assay type: in vivo, BALB/c nude mice
Description: (§1) The PDX studies were carried out by WuXi AppTec (Shanghai, China). HCC-PDX models were originally established from surgically resected tumor tissue that was implanted in 6–8-week-old female BALB/c nude mice. Animal studies were performed according to the guidelines approved by the Institutional Animal Care and Use Committee of Wuxi AppTec, which follow the guidance of the Association for the Assessment and Accreditation of Laboratory Animal Care. Animals were routinely monitored for their health status and their body weights. Treatment was suspended and/or doses reduced at body weight losses >10%. Animals were euthanized when the tumor size exceeded 2000 mm^3. Pieces from tumor xenografts (∼30 mm^3) from passages 4–8 (ST1) were implanted subcutaneously at the right flank, and tumors were grown to an average size of about 150–200 mm^3. […] Tumor size was measured twice weekly using caliper measurements. Tumor volume (mm^3) was calculated using the formula 0.5 a × b^2, where a and b are the long and short diameters of the tumor, respectively. TGI was assessed either by calculating the ratio of the mean tumor volumes of treated and control groups or by determination of the RTV, which relates tumor volumes at any given day of treatment to the volume at the first treatment day.
(§2) In the syngenic orthotopic H129 model, differences in survival times between groups were analyzed for significance using log-rank tests. Analysis of tumor volumes of the HCC-PDX models was performed with log2-transformed values on defined days of measurement based on the assumption of their log-normal distribution. […] All respective statistical test results were derived from a common linear model that allows for individual variances in the different groups. The adjustment for multiple testing was carried out using Šidák correction at a significance level of 0.05. Back transformation of the mean difference of log2-transformed tumor volumes led to the ratios of the compared groups, whereby ratios of 1 reflect no difference in tumor volumes and ratios below or above 1 reflect smaller or larger tumor volumes, respectively, of the respective second group. The analyses of RTV were carried out in a similar fashion without the log2 transformation of values. Bead-based western data were analyzed (described in [15]) using the MEV 4.8.1 software package. A p-value <0.05 was regarded as significant. All statistical analyses were performed with SAS® 9.4 [34].

HCC-PDX model 101 = test: Patient-derived HCC xenograft model 101, tumor growth; assay type: in vivo, BALB/c nude mice
Description: as §1, §2

H129 hepatoma = test: Syngenic orthotopic H129 hepatoma mouse model, survival; assay type: in vivo, C3H/HeN mice; conditions: sorafenib 30 mg/kg/day oral, separate study; vehicle 28 days
From the text: C3H/HeN mice aged 10–12 weeks with an average weight of 25 g were used for this model and were obtained from Charles River (Sulzfeld, Germany). Experiments were initiated after an acclimatizing period of at least 8 days. Syngenic murine H129 hepatoma cells (obtained from Dr. V. Schmitz, University of Bonn, Germany) were cultivated in RPMI medium, containing 10% fetal calf serum (FCS) and 5% glutamine. Cells were harvested in a subconfluent state (70–80%), prepared for injection of 5×10^4 cells/20 μL in growth factor-free Matrigel, and transplanted in the left upper liver lobe. Animals with surgical failures were marked and excluded from the experiment. Treatment was initiated 4–5 days after transplantation. One set of mice received regorafenib 10 mg/kg once daily, vehicle solution once daily, or no treatment (n=8 per treatment group). […] Treatments were given orally via gavage. The vehicle solution contained 10% Transcutol, 10% Cremophor, and 80% 0.9% NaCl. Animals were weighed twice a week and monitored daily for behavior and wound healing. […] Due to ascites formation in the peritoneum (a symptom of the disease), body weight was not used as part of the assessment. Animals were dissected to assess the cause of death unless they had died in their cage overnight.
(§3) In the syngenic orthotopic H129 model, differences in survival times between groups were analyzed for significance using log-rank tests. Analysis of tumor volumes of the HCC-PDX models was performed with log2-transformed values on defined days of measurement based on the assumption of their log-normal distribution. […] All respective statistical test results were derived from a common linear model that allows for individual variances in the different groups. The adjustment for multiple testing was carried out using Šidák correction at a significance level of 0.05. […] Bead-based western data were analyzed (described in [15]) using the MEV 4.8.1 software package. […]

HCC-PDX model 141 = test: Patient-derived HCC xenograft model 141, tumor growth; assay type: in vivo, BALB/c nude mice
Description: as §1, §2

[1] = system: 10 patient-derived HCC xenograft (HCC-PDX) models; test: Panel of 10 HCC-PDX models, overall response and tolerability; assay type: in vivo, BALB/c nude mice
Description: as §1, §3

HCC-PDX model 159 = test: Patient-derived HCC xenograft model 159, tumor growth; assay type: in vivo, BALB/c nude mice
Description: as §1, §2

HCC-PDX model 5 = test: Patient-derived HCC xenograft model 5, tumor growth; assay type: in vivo, BALB/c nude mice
Description: as §1, §2

[2] = Steady-state plasma pharmacokinetics after oral dosing for 5 days; assay type: in vivo, BALB/c nu/nu mice
Description: Pharmacokinetic studies were performed in 6–8-week-old female BALB/c nu/nu mice (Charles River, Sulzfeld, Germany). […] Parent compounds and metabolites M-2 and M-5 were analyzed in plasma samples using validated bioanalytical liquid chromatography-tandem mass spectrometry (LC-MS/MS) methods according to an experimental protocol described earlier. PK parameters, namely the AUC(0–24)ss and Cmax, were calculated from plasma concentrations using a non-compartmental analysis.

HCC-PDX model 189 = test: Patient-derived HCC xenograft model 189, tumor growth; assay type: in vivo, BALB/c nude mice
Description: as §1, §2

HCC-PDX model 10 = test: Patient-derived HCC xenograft model 10, tumor growth; assay type: in vivo, BALB/c nude mice
Description: as §1, §2

HCC-PDX model 20 = test: Patient-derived HCC xenograft model 20, tumor growth; assay type: in vivo, BALB/c nude mice
Description: as §1, §2

[3] = day 28, R 10 / S 30 mg/kg/day oral starting dose
[4] = plasma analyte after oral sorafenib tosylate 30 mg/kg/day (21.9 mg/kg/day sorafenib) for 5 days

CNC(=O)c1cc(Oc2ccc(NC(=O)Nc3ccc(Cl)c(C(F)(F)F)c3)cc2)ccn1 [Sorafenib]
Mean TV (HCC-PDX model 19; [3]): 496.54 mm^3
log TV Differences of least square-means, compound vs vehicle (HCC-PDX model 19; day 28, log2-transformed TV): -0.6887
RTV Differences of least square-means, compound vs vehicle (HCC-PDX model 19; day 42): -29.3
RTV (HCC-PDX model 19; end of study, day 42): 4.70
Mean TV (HCC-PDX model 101; [3]): 416.97 mm^3
RTV (HCC-PDX model 101; end of study, day 42): 5.37
Median survival, days (95% CI) (H129 hepatoma): 33 days and 33 (27, 35) days
Mean TV (HCC-PDX model 141; [3]): 139.51 mm^3
RTV (HCC-PDX model 141; end of study, day 42): 2.16
Models with significant tumor growth inhibition ([1]; 10 HCC-PDX models, regorafenib 10, sorafenib 30 mg/kg/day oral): 7/10
Dose reductions and/or treatment interruptions ([1]; HCC-PDX models, sorafenib compared with regorafenib): more often
Mean TV (HCC-PDX model 159; [3]): 1144.22 mm^3
log TV Differences of least square-means, compound vs vehicle (HCC-PDX model 159; day 28, log2-transformed TV): -0.3943
RTV (HCC-PDX model 159; end of study, day 35): 9.73
Mean TV (HCC-PDX model 5; [3]): 134.44 mm^3
log TV Differences of least square-means, compound vs vehicle (HCC-PDX model 5; day 28, log2-transformed TV): -24,884
RTV Differences of least square-means, compound vs vehicle (HCC-PDX model 5; day 46): -54,048
RTV (HCC-PDX model 5; end of study, day 46): 1.74
AUC(0–24)ss (percent of total) ([2]; after oral sorafenib tosylate 30 mg/kg/day for 5 days, total = molar sum of sorafenib and M-2): 99% of total
AUC(0–24)ss [2, 4]: 177 µmol·h/L
Cmax [2, 4]: 23.9 µmol/L
Estimated Cmax ([2]; sorafenib 30 mg/kg/day related to free base (HCC-PDX study dose), assuming dose linearity): 33.6 µmol/L
Cumulated maximum concentration (Cmax) ([2]; sorafenib tosylate 30 mg/kg once daily for 5 days, parent plus metabolites): 24.5 µmol/L
RTV Differences of least square-means, compound vs vehicle (HCC-PDX model 189; day 21): -29,028
Mean TV (HCC-PDX model 189; day 21, R 10 / S 30 mg/kg/day oral starting dose): 351.96 mm^3
log TV Differences of least square-means, compound vs vehicle (HCC-PDX model 189; day 21, log2-transformed TV): -10,604
RTV (HCC-PDX model 189; end of study, day 21): 2.66
Mean TV (HCC-PDX model 10; day 12, R 10 / S 30 mg/kg/day oral): 607.16 mm^3
log TV Differences of least square-means, compound vs vehicle (HCC-PDX model 10; day 12, log2-transformed TV): -17,966
RTV (HCC-PDX model 10; end of study (RTV analysis day R 40, S 30)): 13.39
Mean TV (HCC-PDX model 20; day 21, R 10 / S 30 mg/kg/day oral): 737.74 mm^3
log TV Differences of least square-means, compound vs vehicle (HCC-PDX model 20; day 21, log2-transformed TV): -0.3573
RTV Differences of least square-means, compound vs vehicle (HCC-PDX model 20; day 42): -12.2
RTV (HCC-PDX model 20; end of study, day 42): 10.55
